In ChEMBL document CHEMBL5036347, “Design of the naphthyl-diarylpyrimidines as potent non-nucleoside reverse transcriptase inhibitors (NNRTIs) via structure-based extension into the entrance channel” (Eur J Med Chem, 2021):
In brackets after ≈: the same amount, converted by molar mass.

Tested on: Human immunodeficiency virus 1
Test: Anti-HIV activity against HIV-1 IIIB infected in human MT4 cells assessed as reduction in virus-induced cytopathic effect incubated for 5 days by MTT assay
Type: functional, organism-based
Conditions: Human immunodeficiency virus 1, IIIB, MT4, 120 h

| Structure (SMILES) | EC50 |
| --- | --- |
| CCNc1cc(Oc2c(OC)cc3cc(C#N)ccc3c2OC)nc(Nc2ccc(C#N)cc2)n1 | 0.0091 µM |

Tested on: Human immunodeficiency virus 2
Test: Anti-HIV activity against HIV2 ROD infected in human MT4 cells assessed as reduction in virus-induced cytopathic effect incubated for 5 days by MTT assay
Type: functional, organism-based
Conditions: Human immunodeficiency virus 2, ROD, MT4, 120 h

| Structure (SMILES) | EC50 |
| --- | --- |
| CCNc1cc(Oc2c(OC)cc3cc(C#N)ccc3c2OC)nc(Nc2ccc(C#N)cc2)n1 | > 1000 µM |

Tested on: not listed separately
Test: Cytotoxicity against human MT4 cells assessed as reduction in cell viability incubated for 5 days by MTT assay
Type: cell-based
Conditions: human, MT4 cells; time 5 day

| Structure (SMILES) | CC50 at 120 h |
| --- | --- |
| CCNc1cc(Oc2c(OC)cc3cc(C#N)ccc3c2OC)nc(Nc2ccc(C#N)cc2)n1 | > 125 µM |

Tested on: Human immunodeficiency virus 1
Test: Antiviral activity against HIV1 harboring reverse transcriptase L100I mutant infected in human MT4 cells assessed as protection against virus-induced cytopathic effect incubated for 5 days by MTT assay
Type: functional, organism-based
Conditions: Human immunodeficiency virus 1, MT4, 120 h

| Structure (SMILES) | EC50 |
| --- | --- |
| CCNc1cc(Oc2c(OC)cc3cc(C#N)ccc3c2OC)nc(Nc2ccc(C#N)cc2)n1 | 0.13 µM |

Tested on: Human immunodeficiency virus 1
Test: Antiviral activity against HIV1 harboring reverse transcriptase K103N mutant infected in human MT4 cells assessed as protection against virus-induced cytopathic effect incubated for 5 days by MTT assay
Type: functional, organism-based
Conditions: Human immunodeficiency virus 1, MT4, 120 h

| Structure (SMILES) | EC50 |
| --- | --- |
| CCNc1cc(Oc2c(OC)cc3cc(C#N)ccc3c2OC)nc(Nc2ccc(C#N)cc2)n1 | 0.0088 µM |

Tested on: Human immunodeficiency virus 1
Test: Antiviral activity against HIV1 harboring reverse transcriptase Y181C mutant infected in human MT4 cells assessed as protection against virus-induced cytopathic effect incubated for 5 days by MTT assay
Type: functional, organism-based
Conditions: Human immunodeficiency virus 1, MT4, 120 h

| Structure (SMILES) | EC50 |
| --- | --- |
| CCNc1cc(Oc2c(OC)cc3cc(C#N)ccc3c2OC)nc(Nc2ccc(C#N)cc2)n1 | 0.061 µM |

Tested on: Human immunodeficiency virus 1
Test: Antiviral activity against HIV1 harboring reverse transcriptase Y188L mutant infected in human MT4 cells assessed as protection against virus-induced cytopathic effect incubated for 5 days by MTT assay
Type: functional, organism-based
Conditions: Human immunodeficiency virus 1, MT4, 120 h

| Structure (SMILES) | EC50 |
| --- | --- |
| CCNc1cc(Oc2c(OC)cc3cc(C#N)ccc3c2OC)nc(Nc2ccc(C#N)cc2)n1 | 0.58 µM |

Tested on: Human immunodeficiency virus 1
Test: Antiviral activity against HIV1 harboring reverse transcriptase E138K mutant infected in human MT4 cells assessed as protection against virus-induced cytopathic effect incubated for 5 days by MTT assay
Type: functional, organism-based
Conditions: Human immunodeficiency virus 1, MT4, 120 h

| Structure (SMILES) | EC50 |
| --- | --- |
| CCNc1cc(Oc2c(OC)cc3cc(C#N)ccc3c2OC)nc(Nc2ccc(C#N)cc2)n1 | 0.016 µM |

Tested on: Human immunodeficiency virus 1
Test: Antiviral activity against HIV1 harboring reverse transcriptase F227L/V106A mutant infected in human MT4 cells assessed as protection against virus-induced cytopathic effect incubated for 5 days by MTT assay
Type: functional, organism-based
Conditions: Human immunodeficiency virus 1, MT4, 120 h

| Structure (SMILES) | EC50 |
| --- | --- |
| CCNc1cc(Oc2c(OC)cc3cc(C#N)ccc3c2OC)nc(Nc2ccc(C#N)cc2)n1 | 4.21 µM |

Tested on: not listed separately
Test: Resistance fold, ratio of EC50 for HIV1 harboring reverse transcriptase Y181C mutant […] to EC50 for wild type HIV1 […]
Type: functional
Conditions: not given

| Structure (SMILES) | Ratio EC50 |
| --- | --- |
| CCNc1cc(Oc2c(OC)cc3cc(C#N)ccc3c2OC)nc(Nc2ccc(C#N)cc2)n1 | 7 |

Tested on: not listed separately
Test: Resistance fold, ratio of EC50 for HIV1 harboring reverse transcriptase L100I mutant […] to EC50 for wild type HIV1 […]
Type: functional
Conditions: not given

| Structure (SMILES) | Ratio EC50 |
| --- | --- |
| CCNc1cc(Oc2c(OC)cc3cc(C#N)ccc3c2OC)nc(Nc2ccc(C#N)cc2)n1 | 14 |

Tested on: not listed separately
Test: Resistance fold, ratio of EC50 for HIV1 harboring reverse transcriptase K103N mutant […] to EC50 for wild type HIV1 […]
Type: functional
Conditions: not given

| Structure (SMILES) | Ratio EC50 |
| --- | --- |
| CCNc1cc(Oc2c(OC)cc3cc(C#N)ccc3c2OC)nc(Nc2ccc(C#N)cc2)n1 | 1 |

Tested on: Human immunodeficiency virus 1
Test: Antiviral activity against HIV1 harboring reverse transcriptase K103N/Y181C double mutant infected in human MT4 cells assessed as protection against virus-induced cytopathic effect incubated for 5 days by MTT assay
Type: functional, organism-based
Conditions: Human immunodeficiency virus 1, MT4, 120 h

| Structure (SMILES) | EC50 |
| --- | --- |
| CCNc1cc(Oc2c(OC)cc3cc(C#N)ccc3c2OC)nc(Nc2ccc(C#N)cc2)n1 | 0.42 µM |

Tested on: not listed separately
Test: Selectivity index, ratio of CC50 for cytotoxicity against human MT4 cells to EC50 of Anti-HIV activity against HIV-1 IIIB infected in human MT4
Type: toxicity, cell-based
Conditions: read-out: Selectivity Index

| Structure (SMILES) | selectivity ratio |
| --- | --- |
| CCNc1cc(Oc2c(OC)cc3cc(C#N)ccc3c2OC)nc(Nc2ccc(C#N)cc2)n1 | > 30500 |

Target: Human immunodeficiency virus type 1 reverse transcriptase (Human immunodeficiency virus 1, UniProt Q72547, K103N/Y181C)
Test: Inhibition of HIV1 reverse transcriptase K103N/Y181C double mutant using oligo(dT)16 as primer measured after 40 mins by picogreen-dye based spectrofluorimetric analysis
Conditions: not given

| Structure (SMILES) | IC50 |
| --- | --- |
| CCNc1cc(Oc2c(OC)cc3cc(C#N)ccc3c2OC)nc(Nc2ccc(C#N)cc2)n1 | 0.43 µM |

Tested on: not listed separately
Test: Resistance fold, ratio of EC50 for HIV1 harboring reverse transcriptase Y188L mutant […] to EC50 for wild type HIV1 […]
Type: functional
Conditions: not given

| Structure (SMILES) | Ratio EC50 |
| --- | --- |
| CCNc1cc(Oc2c(OC)cc3cc(C#N)ccc3c2OC)nc(Nc2ccc(C#N)cc2)n1 | 64 |

Tested on: not listed separately
Test: Resistance fold, ratio of EC50 for HIV1 harboring reverse transcriptase E138K mutant […] to EC50 for wild type HIV1 […]
Type: functional
Conditions: not given

| Structure (SMILES) | Ratio EC50 |
| --- | --- |
| CCNc1cc(Oc2c(OC)cc3cc(C#N)ccc3c2OC)nc(Nc2ccc(C#N)cc2)n1 | 2 |

Tested on: not listed separately
Test: Resistance fold, ratio of EC50 for HIV1 harboring reverse transcriptase F227L/V106A double mutant […] to EC50 for wild type HIV1 […]
Type: functional
Conditions: not given

| Structure (SMILES) | Ratio EC50 |
| --- | --- |
| CCNc1cc(Oc2c(OC)cc3cc(C#N)ccc3c2OC)nc(Nc2ccc(C#N)cc2)n1 | 463 |

Tested on: not listed separately
Test: Resistance fold, ratio of EC50 for HIV1 harboring reverse transcriptase K103N/Y181C double mutant […] to EC50 for wild type HIV1 […]
Type: functional
Conditions: not given

| Structure (SMILES) | Ratio EC50 |
| --- | --- |
| CCNc1cc(Oc2c(OC)cc3cc(C#N)ccc3c2OC)nc(Nc2ccc(C#N)cc2)n1 | 46 |

Target: Human immunodeficiency virus type 1 reverse transcriptase (Human immunodeficiency virus 1, UniProt Q72547)
Test: Inhibition of wild type HIV1 reverse transcriptase using oligo(dT)16 as primer measured after 40 mins by picogreen-dye based spectrofluorimetric analysis
Conditions: not given

| Structure (SMILES) | IC50 |
| --- | --- |
| CCNc1cc(Oc2c(OC)cc3cc(C#N)ccc3c2OC)nc(Nc2ccc(C#N)cc2)n1 | 0.06 µM |

Target: Human immunodeficiency virus type 1 reverse transcriptase (Human immunodeficiency virus 1, UniProt Q72547, L100I)
Test: Inhibition of HIV1 reverse transcriptase L100I mutant using oligo(dT)16 as primer measured after 40 mins by picogreen-dye based spectrofluorimetric analysis
Conditions: not given

| Structure (SMILES) | IC50 |
| --- | --- |
| CCNc1cc(Oc2c(OC)cc3cc(C#N)ccc3c2OC)nc(Nc2ccc(C#N)cc2)n1 | 1.31 µM |

Target: Human immunodeficiency virus type 1 reverse transcriptase (Human immunodeficiency virus 1, UniProt Q72547, K103N)
Test: Inhibition of HIV1 reverse transcriptase K103N mutant using oligo(dT)16 as primer measured after 40 mins by picogreen-dye based spectrofluorimetric analysis
Conditions: not given

| Structure (SMILES) | IC50 |
| --- | --- |
| CCNc1cc(Oc2c(OC)cc3cc(C#N)ccc3c2OC)nc(Nc2ccc(C#N)cc2)n1 | 0.12 µM |

Target: Human immunodeficiency virus type 1 reverse transcriptase (Human immunodeficiency virus 1, UniProt Q72547, Y181C)
Test: Inhibition of HIV1 reverse transcriptase Y181C mutant using oligo(dT)16 as primer measured after 40 mins by picogreen-dye based spectrofluorimetric analysis
Conditions: not given

| Structure (SMILES) | IC50 |
| --- | --- |
| CCNc1cc(Oc2c(OC)cc3cc(C#N)ccc3c2OC)nc(Nc2ccc(C#N)cc2)n1 | 0.16 µM |

Target: Human immunodeficiency virus type 1 reverse transcriptase (Human immunodeficiency virus 1, UniProt Q72547, Y188L)
Test: Inhibition of HIV1 reverse transcriptase Y188L mutant using oligo(dT)16 as primer measured after 40 mins by picogreen-dye based spectrofluorimetric analysis
Conditions: not given

| Structure (SMILES) | IC50 |
| --- | --- |
| CCNc1cc(Oc2c(OC)cc3cc(C#N)ccc3c2OC)nc(Nc2ccc(C#N)cc2)n1 | 2.32 µM |

Target: Human immunodeficiency virus type 1 reverse transcriptase (Human immunodeficiency virus 1, UniProt Q72547, E138K)
Test: Inhibition of HIV1 reverse transcriptase E138K mutant using oligo(dT)16 as primer measured after 40 mins by picogreen-dye based spectrofluorimetric analysis
Conditions: not given

| Structure (SMILES) | IC50 |
| --- | --- |
| CCNc1cc(Oc2c(OC)cc3cc(C#N)ccc3c2OC)nc(Nc2ccc(C#N)cc2)n1 | 0.09 µM |

Target: Human immunodeficiency virus type 1 reverse transcriptase (Human immunodeficiency virus 1, UniProt Q72547, F227L/V106A)
Test: Inhibition of HIV1 reverse transcriptase F227L/V106A double mutant using oligo(dT)16 as primer measured after 40 mins by picogreen-dye based spectrofluorimetric analysis
Conditions: not given

| Structure (SMILES) | IC50 |
| --- | --- |
| CCNc1cc(Oc2c(OC)cc3cc(C#N)ccc3c2OC)nc(Nc2ccc(C#N)cc2)n1 | 1.16 µM |

Tested on: not listed separately
Test: Water solubility of compound at pH 2 at 0.1 to 10 mg by HPLC-UV analysis
Type: physicochemical
Conditions: dose 0.1-10 mg

| Structure (SMILES) | solubility |
| --- | --- |
| CCNc1cc(Oc2c(OC)cc3cc(C#N)ccc3c2OC)nc(Nc2ccc(C#N)cc2)n1 | 1 µg/mL (≈ 2.14 µM) |

Tested on: not listed separately
Test: Water solubility of compound at pH 7 at 0.1 to 10 mg by HPLC-UV analysis
Type: physicochemical
Conditions: dose 0.1-10 mg

| Structure (SMILES) | solubility |
| --- | --- |
| CCNc1cc(Oc2c(OC)cc3cc(C#N)ccc3c2OC)nc(Nc2ccc(C#N)cc2)n1 | < 1 µg/mL |

Tested on: not listed separately
Test: Water solubility of compound at pH 7.4 at 0.1 to 10 mg by HPLC-UV analysis
Type: physicochemical
Conditions: dose 0.1-10 mg

| Structure (SMILES) | solubility |
| --- | --- |
| CCNc1cc(Oc2c(OC)cc3cc(C#N)ccc3c2OC)nc(Nc2ccc(C#N)cc2)n1 | 9 µg/mL (≈ 19.3 µM) |
